Assay results from ChEMBL document CHEMBL1201862, “PubChem BioAssay data set” (2004).
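96-well plates; 48 h exposure; 5 concentrations. Endpoints by linear interpolation between flanking doses. Not reached: highest tested concentration assigned. At the GI50, growth is halved.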 The source made the active and inactive calls. Cut-off read from the data, not from the text of the source: active = GI50 up to about 1.1 µM and inactive = higher.

How the values were obtained:
Experiment in all cases: NCI anticancer screen, dose series, 48 h
786-0 = test system: 786-0
A549 = test system: A549
BT-549 = test system: BT-549
CAKI-1 = test system: CAKI-1
HL-60 = test system: HL-60
HOP-62 = test system: HOP-62
HOP-92 = test system: HOP-92
K562 = test system: K562
Malme-3M = test system: Malme-3M
NCI-H460 = test system: NCI-H460
NCI-H522 = test system: NCI-H522
RXF 393 = test system: RXF 393
SF-295 = test system: SF-295
SK-MEL-2 = test system: SK-MEL-2
SK-MEL-5 = test system: SK-MEL-5
SK-OV-3 = test system: SK-OV-3
SNB-19 = test system: SNB-19
UACC-62 = test system: UACC-62
UO-31 = test system: UO-31
LXFL 529 = test system: LXFL 529

Measured: GI50

CC1=NN(c2ccccc2)C(=O)C1/N=N/c1ccc(S(N)(=O)=O)cc1 (centres undefined)
inactive: 786-0 > 100 µM | A549 > 100 µM | BT-549 > 100 µM | CAKI-1 > 100 µM | HL-60 > 100 µM | HOP-62 > 100 µM | HOP-92 > 100 µM | K562 > 100 µM | Malme-3M > 100 µM | NCI-H460 > 100 µM | NCI-H522 > 100 µM | RXF 393 > 100 µM | SF-295 > 100 µM | SK-MEL-2 > 100 µM | SK-MEL-5 > 100 µM | SK-OV-3 > 100 µM | SNB-19 > 100 µM | UACC-62 > 100 µM | UO-31 > 100 µM

O=C(O)c1nnsc1-c1csnn1
inactive: 786-0 > 100 µM | A549 > 100 µM | BT-549 > 100 µM | CAKI-1 > 100 µM | HL-60 > 100 µM | HOP-62 > 100 µM | HOP-92 > 100 µM | K562 > 100 µM | Malme-3M > 100 µM | NCI-H460 > 100 µM | NCI-H522 > 100 µM | RXF 393 > 100 µM | SF-295 > 100 µM | SK-MEL-2 > 100 µM | SK-MEL-5 > 100 µM | SK-OV-3 > 100 µM | SNB-19 > 100 µM | UACC-62 > 100 µM | UO-31 > 100 µM

N#C/C(=C\c1ccc(CP(=O)(O)O)cc1)C(N)=O
inactive: 786-0 > 100 µM | A549 > 100 µM | CAKI-1 > 100 µM | HL-60 > 100 µM | HOP-62 > 100 µM | HOP-92 > 100 µM | K562 > 100 µM | LXFL 529 > 100 µM | Malme-3M > 100 µM | NCI-H460 > 100 µM | NCI-H522 > 100 µM | SF-295 > 100 µM | SK-MEL-2 > 100 µM | SK-MEL-5 > 100 µM | SK-OV-3 > 100 µM | SNB-19 > 100 µM | UACC-62 > 100 µM | UO-31 > 100 µM

O=C1C(=O)N(c2ccc(Cl)cc2Cl)C(=O)C(=O)C1c1nc2ccccc2o1
inactive: 786-0 > 100 µM | A549 > 100 µM | CAKI-1 > 100 µM | HL-60 > 100 µM | HOP-62 > 100 µM | HOP-92 > 100 µM | K562 > 100 µM | LXFL 529 > 100 µM | Malme-3M > 100 µM | NCI-H460 > 100 µM | NCI-H522 > 100 µM | SF-295 > 100 µM | SK-MEL-2 > 100 µM | SK-MEL-5 > 100 µM | SK-OV-3 > 100 µM | SNB-19 > 100 µM | UACC-62 > 100 µM | UO-31 > 100 µM

CCOC(=O)c1ccc(/N=N\c2ccc(N(CCC#N)CCC#N)cc2C)cc1
inactive: 786-0 35.6 µM | A549 > 100 µM | CAKI-1 > 100 µM | HL-60 > 100 µM | HOP-62 > 100 µM | K562 > 100 µM | LXFL 529 35.9 µM | Malme-3M > 100 µM | NCI-H522 30.4 µM | RXF 393 > 100 µM | SF-295 > 100 µM | SK-MEL-2 > 100 µM | SK-MEL-5 > 100 µM | SK-OV-3 > 100 µM | SNB-19 > 100 µM | UACC-62 > 100 µM | UO-31 > 100 µM

O=C1NC2C(CCO)CC=C[C@H]2c2cc3c(cc21)OCO3 (some centres undefined)
inactive: 786-0 > 100 µM | A549 > 100 µM | HL-60 > 100 µM | HOP-62 > 100 µM | K562 > 100 µM | LXFL 529 > 100 µM | Malme-3M > 100 µM | NCI-H460 > 100 µM | NCI-H522 > 100 µM | RXF 393 > 100 µM | SF-295 > 100 µM | SK-OV-3 > 100 µM | SNB-19 > 100 µM | UACC-62 > 100 µM | UO-31 > 100 µM

COc1cc(C)c(O)c(C(=O)O)c1
inactive: 786-0 > 100 µM | A549 > 100 µM | CAKI-1 > 100 µM | HOP-62 > 100 µM | K562 > 100 µM | LXFL 529 > 100 µM | Malme-3M > 100 µM | NCI-H460 > 100 µM | NCI-H522 > 100 µM | RXF 393 > 100 µM | SF-295 > 100 µM | SK-MEL-2 > 100 µM | SK-MEL-5 > 100 µM | SK-OV-3 > 100 µM | SNB-19 > 100 µM | UACC-62 > 100 µM | UO-31 > 100 µM

Cc1cc(=O)n2c(cc3cccccc32)n1
inactive: 786-0 > 100 µM | A549 > 100 µM | CAKI-1 > 100 µM | HL-60 > 100 µM | HOP-62 > 100 µM | K562 > 100 µM | LXFL 529 > 100 µM | NCI-H460 > 100 µM | NCI-H522 > 100 µM | RXF 393 > 100 µM | SF-295 > 100 µM | SK-MEL-2 > 100 µM | SNB-19 > 100 µM | UACC-62 > 100 µM | UO-31 > 100 µM

CC(C)(C)NC(=O)C12C3C4C1C1C2C3C41I (centres undefined)
inactive: 786-0 > 100 µM | A549 > 100 µM | CAKI-1 > 100 µM | HL-60 > 100 µM | HOP-92 84.1 µM | K562 > 100 µM | LXFL 529 > 100 µM | Malme-3M > 100 µM | NCI-H460 > 100 µM | NCI-H522 > 100 µM | SF-295 > 100 µM | SK-MEL-2 > 100 µM | SNB-19 > 100 µM | UO-31 > 100 µM

CSc1ccc(-c2cn3ccsc3n2)c(O)c1
inactive: 786-0 20.7 µM | A549 > 90.8 µM | CAKI-1 > 100 µM | HL-60 17 µM | HOP-62 49.9 µM | HOP-92 47.3 µM | K562 26.4 µM | LXFL 529 > 54.5 µM | Malme-3M > 61.1 µM | NCI-H460 13.6 µM | NCI-H522 37.2 µM | SF-295 39 µM | SK-MEL-2 > 85.3 µM | SK-MEL-5 41 µM | SK-OV-3 > 82.4 µM | SNB-19 > 61.5 µM | UACC-62 69.7 µM | UO-31 59.8 µM

CCOC(=O)c1ccc(NC(=O)SCCC(=O)O)cc1
inactive: 786-0 > 100 µM | A549 > 100 µM | HL-60 > 100 µM | HOP-62 > 100 µM | K562 63.1 µM | LXFL 529 69 µM | NCI-H460 > 100 µM | RXF 393 8.04 µM | SF-295 > 100 µM | SK-MEL-2 > 100 µM | SNB-19 > 100 µM | UACC-62 39.5 µM | UO-31 > 100 µM

COc1ccc([C@@H]2C[C@@H]3C(=O)OC(=O)[C@@H]3c3c2c2ccccc2n3C)cc1
inactive: 786-0 > 100 µM | A549 > 100 µM | CAKI-1 > 100 µM | HL-60 > 100 µM | HOP-62 > 100 µM | HOP-92 > 100 µM | K562 > 100 µM | LXFL 529 > 100 µM | Malme-3M > 100 µM | NCI-H522 > 100 µM | SF-295 > 100 µM | SK-MEL-2 > 100 µM | SK-OV-3 > 100 µM | SNB-19 > 100 µM | UACC-62 > 100 µM | UO-31 > 100 µM

Nc1c(-c2ccc(Cl)cc2)[n+]([O-])c2ccccc2[n+]1[O-]
inactive: 786-0 > 100 µM | A549 > 100 µM | CAKI-1 > 100 µM | HL-60 32.4 µM | HOP-62 > 100 µM | HOP-92 28.1 µM | K562 49.3 µM | LXFL 529 52.7 µM | Malme-3M > 100 µM | NCI-H460 94.2 µM | NCI-H522 25.3 µM | SF-295 87.7 µM | SK-MEL-2 > 100 µM | SK-MEL-5 > 100 µM | SK-OV-3 > 100 µM | SNB-19 34.8 µM | UACC-62 > 100 µM | UO-31 5.86 µM

CNc1ncc(-c2nnnn2-c2ccccc2)c(CN(C)C)n1
inactive: 786-0 > 100 µM | A549 > 100 µM | BT-549 > 100 µM | CAKI-1 > 100 µM | HL-60 > 100 µM | HOP-62 > 100 µM | HOP-92 > 100 µM | K562 > 100 µM | Malme-3M > 100 µM | NCI-H460 > 100 µM | NCI-H522 > 100 µM | RXF 393 > 100 µM | SF-295 > 100 µM | SK-MEL-2 > 100 µM | SK-MEL-5 > 100 µM | SK-OV-3 > 100 µM | SNB-19 > 100 µM | UACC-62 > 100 µM | UO-31 > 100 µM

N#C[BH2-][n+]1ccc(C(=O)NNCc2cccc(C(F)(F)F)c2)cc1
inactive: 786-0 4.83 µM | A549 13.5 µM | BT-549 14.3 µM | CAKI-1 37.9 µM | HL-60 23.4 µM | HOP-62 12.8 µM | HOP-92 14.9 µM | K562 20.5 µM | Malme-3M 3.54 µM | NCI-H460 20 µM | NCI-H522 16.3 µM | RXF 393 8.22 µM | SF-295 6.68 µM | SK-MEL-2 12.1 µM | SK-MEL-5 1.83 µM | SK-OV-3 8.93 µM | SNB-19 13.6 µM | UACC-62 4.59 µM | UO-31 11.9 µM

O=C(Cn1ccnc1[N+](=O)[O-])NCCO [ETANIDAZOLE]
inactive: 786-0 > 100 µM | A549 > 100 µM | BT-549 > 100 µM | CAKI-1 > 100 µM | HL-60 > 100 µM | HOP-62 > 100 µM | HOP-92 > 100 µM | K562 > 100 µM | Malme-3M > 100 µM | NCI-H460 27.5 µM | NCI-H522 > 100 µM | RXF 393 > 100 µM | SF-295 > 100 µM | SK-MEL-2 > 100 µM | SK-MEL-5 > 100 µM | SK-OV-3 > 100 µM | SNB-19 > 100 µM | UACC-62 > 100 µM | UO-31 > 100 µM
